Laboratory results taken from publication PMC7922706, “New Inhibitory Effects of Cilnidipine on Microglial P2X7 Receptors and IL-1β Release: An Involvement in its Alleviating Effect on Neuropathic Pain” (Cells, 2021).
Like-named read-outs stand apart in the source and are kept apart here.

Target: T1, rat P2X7R (Rattus norvegicus, UniProt Q64663)
T1 construct: gene P2rx7; rP2X7R (NM_019256) stably expressed in 1321N1 cells
T1 sequence (Q64663 1-595): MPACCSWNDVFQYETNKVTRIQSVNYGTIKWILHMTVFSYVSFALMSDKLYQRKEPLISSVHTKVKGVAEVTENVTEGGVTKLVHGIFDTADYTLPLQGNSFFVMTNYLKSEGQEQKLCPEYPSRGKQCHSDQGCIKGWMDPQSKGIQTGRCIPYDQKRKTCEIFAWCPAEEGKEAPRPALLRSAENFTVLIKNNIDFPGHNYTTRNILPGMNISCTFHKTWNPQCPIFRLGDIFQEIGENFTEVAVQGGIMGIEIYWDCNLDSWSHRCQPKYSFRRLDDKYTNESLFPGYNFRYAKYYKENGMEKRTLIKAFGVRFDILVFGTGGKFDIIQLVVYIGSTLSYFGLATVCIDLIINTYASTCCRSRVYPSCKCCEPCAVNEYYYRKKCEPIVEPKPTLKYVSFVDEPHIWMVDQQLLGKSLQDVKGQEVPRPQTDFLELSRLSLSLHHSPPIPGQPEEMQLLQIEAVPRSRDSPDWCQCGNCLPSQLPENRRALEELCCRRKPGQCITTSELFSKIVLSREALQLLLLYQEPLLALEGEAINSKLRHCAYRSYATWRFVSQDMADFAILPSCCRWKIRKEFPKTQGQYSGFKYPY
Assay: single-cell Fura-2 Ca2+ imaging, BzATP-stimulated rP2X7R-1321N1 cells
Assay type: cell-based

IC50 (read-out: IC50) | IC50 | Structure (SMILES)
0.22 µM |  | COc1cc(C(=O)NS(=O)(=O)c2ccccc2C)ccc1Cc1cn(C)c2ccc(NC(=O)OC3CCCC3)cc12 [ZFK, zafirlukast]
0.13 µM |  | COCCOC(=O)C1=C(C)NC(C)=C(C(=O)OC/C=C/c2ccccc2)C1c1cccc([N+](=O)[O-])c1 (racemic) [CNP, 2-Methoxyethyl(E)-3-phenyl-2-propen-1-yl(±)-1,4-dihydro-2,6-dimethyl-4-(3-nitrophenyl)pyridine-3,5-dicarboxylate]
 | 0.25 µM | CCc1oc2ccccc2c1C(=O)c1cc(Br)c(O)c(Br)c1 [BBR, benzbromarone]
